Reference: ChEMBL document CHEMBL3098036, “Sulfonamide inhibition studies of the δ-carbonic anhydrase from the diatom Thalassiosira weissflogii” (Bioorg Med Chem Lett, 2014)

Biological target: T1, Delta carbonic anhydrase (Conticribra weissflogii, UniProt Q5U9J1)
T1 sequence (Q5U9J1 whole entry): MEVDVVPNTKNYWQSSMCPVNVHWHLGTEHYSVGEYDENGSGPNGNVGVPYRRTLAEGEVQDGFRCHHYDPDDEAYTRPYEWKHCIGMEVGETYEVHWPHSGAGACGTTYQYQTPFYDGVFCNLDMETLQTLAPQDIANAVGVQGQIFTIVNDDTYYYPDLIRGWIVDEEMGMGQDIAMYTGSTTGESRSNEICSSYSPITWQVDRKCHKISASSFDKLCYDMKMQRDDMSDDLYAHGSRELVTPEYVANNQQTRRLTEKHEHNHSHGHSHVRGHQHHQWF

Row | Ki [nM] | SMILES
1 | 7880 | NS(=O)(=O)c1ccc(CCNS(=O)(=O)c2ccc([N+](=O)[O-])cc2CO)cc1
2 | 424 | NS(=O)(=O)c1cccc(S(N)(=O)=O)c1
3 | 762 | NS(=O)(=O)c1cc(Cl)cc(Cl)c1O
4 | 10600 | Nc1nnc(S(N)(=O)=O)s1
5 | 897 | Nc1ccc(S(=O)(=O)NCc2ccc(S(N)(=O)=O)cc2)cc1
6 | 12400 | Nc1ccc(S(=O)(=O)Nc2nnc(S(N)(=O)=O)s2)cc1
7 | 3740 | Nc1ccc(S(=O)(=O)Nc2ccc(S(N)(=O)=O)cc2)cc1
8 | 615 | Nc1nccc(Nc2ccc(S(N)(=O)=O)cc2)n1
9 | 94.6 | Nc1ccc(S(N)(=O)=O)cc1Br
10 | 5530 | Cn1nc(S(N)(=O)=O)sc1=N
11 | 4700 | NS(=O)(=O)c1ccc(CCO)cc1
12 | 295 | Nc1cccc(S(N)(=O)=O)c1
13 | 15200 | NS(=O)(=O)c1ccc(CO)cc1
14 | 167 | Nc1ccc(S(N)(=O)=O)cc1Cl
15 | 862 | Nc1ccc(S(=O)(=O)NCCc2ccc(S(N)(=O)=O)cc2)cc1
16 | 375 | NS(=O)(=O)c1ccc(S(=O)(=O)Nc2cccc3c(Cl)c[nH]c23)cc1
17 | 394 | NS(=O)(=O)c1nnc(NS(=O)(=O)c2ccccc2)s1 [BENZOLAMIDE]
18 | 118 | CCN[C@H]1CN(CCCOC)S(=O)(=O)c2sc(S(N)(=O)=O)cc21 [BRINZOLAMIDE]
19 | 871 | NS(=O)(=O)c1ccc(C(=O)O)cc1 [CARZENIDE]
20 | 265 | Cc1ccc(-c2cc(C(F)(F)F)nn2-c2ccc(S(N)(=O)=O)cc2)cc1 [CELECOXIB]
21 | 458 | NS(=O)(=O)c1cc(Cl)c(Cl)c(S(N)(=O)=O)c1 [DICHLORPHENAMIDE]
22 | 424 | NCc1ccc(S(N)(=O)=O)cc1 [MAFENIDE]
23 | 424 | Cc1ccc(S(N)(=O)=O)cc1 [P-TOLUENESULFONAMIDE]
24 | 9200 | O=C1NS(=O)(=O)c2ccccc21 [SACCHARIN]
25 | 392 | CC1(C)O[C@@H]2[C@@H](CO[C@@]3(COS(N)(=O)=O)OC(C)(C)O[C@@H]23)O1 [TOPIRAMATE]
26 | 404 | NS(=O)(=O)Cc1noc2ccccc12 [ZONISAMIDE]

Row | SMILES | Ki [nM]
27 | CC(=O)/N=c1/sc(S(N)(=O)=O)nn1C [METHAZOLAMIDE] | 170
